Laboratory results: ChEMBL document CHEMBL5376003, “Structure-Activity Relationship of FL118 Platform Position 7 Versus Position 9-Derived Compounds and Their Mechanism of Action and Antitumor Activity” (J Med Chem, 2023)
Activity calls are given as the source filed them. The calls are words filed in the database; no cut-off is given here.

Assays:
HCT-116 [1] = test: Induction of apoptosis in human HCT-116 cells assessed as downregulation of NDC1 gene expression at 10 to 500 nM incubated for 6 to 48 hrs by RNA analysis; type: functional, cell-based; settings: dose 10-500 nM, time 6-48 hrs
[2] = Toxicity in SCID mouse xenografted with human PDX27454 cells assessed as body weight loss at 7 mg/kg,po administrated once per week for 4 weeks; type: organism-based; settings: in vivo, 672 h
HCT-116 [3] = test: Induction of apoptosis in human HCT-116 cells assessed as upregulation of ADCY6 mRNA expression at 10 to 500 nM incubated for 6 to 48 hrs by RNA analysis; type: functional, cell-based; settings: dose 10-500 nM, time 6-48 hrs
HCT-116 [4] = test: Induction of apoptosis in human HCT-116 cells assessed as downregulation of NUP205 gene expression at 10 to 500 nM incubated for 6 to 48 hrs by RNA analysis; type: functional, cell-based; settings: dose 10-500 nM, time 6-48 hrs
[5] = Toxicity in SCID mouse xenografted with human PDX27454 cells assessed as body weight loss at 3 to 5 mg/kg,po administrated once per week for 4 weeks; type: organism-based; settings: in vivo, 672 h, dose 3-5 mg/kg
HCT-116 [6] = test: Induction of apoptosis in human HCT-116 cells assessed as upregulation of USP11 mRNA expression at 10 to 500 nM incubated for 6 to 48 hrs by RNA analysis; type: functional, cell-based; settings: dose 10-500 nM, time 6-48 hrs
HCT-116 [7] = test: Induction of apoptosis in human HCT-116 cells assessed as modulation of TOP2A mRNA expression at 10 to 500 nM incubated for 6 to 48 hrs by RNA analysis; type: functional, cell-based; settings: dose 10-500 nM, time 6-48 hrs
HCT-116 [8] = test: Induction of apoptosis in human HCT-116 cells assessed as downregulation of TPR gene expression at 10 to 500 nM incubated for 6 to 48 hrs by RNA analysis; type: functional, cell-based; settings: dose 10-500 nM, time 6-48 hrs
HCT-116 [9] = test: Induction of apoptosis in human HCT-116 cells assessed as downregulation of NT5C2 gene expression at 10 to 500 nM incubated for 6 to 48 hrs by RNA analysis; type: functional, cell-based; settings: dose 10-500 nM, time 6-48 hrs
[10] = Toxicity in SCID mouse xenografted with human PDX27454 cells assessed as body weight loss at 8 mg/kg,po administrated once per week for 3 weeks; type: organism-based; settings: in vivo, 504 h
HCT-116 [11] = test: Induction of apoptosis in human HCT-116 cells assessed as downregulation of NUP85 gene expression at 10 to 500 nM incubated for 6 to 48 hrs by RNA analysis; type: functional, cell-based; settings: dose 10-500 nM, time 6-48 hrs
PDX27454 [12] = test: Antitumor activity against human PDX27454 cells xenografted in SCID mouse model assessed as reduction in tumor volume at 2 mg/kg,po administrated once per week for 3 weeks; type: functional, organism-based
HCT-116 [13] = test: Induction of apoptosis in human HCT-116 cells assessed as downregulation of NME4 gene expression at 10 to 500 nM incubated for 6 to 48 hrs by RNA analysis; type: functional, cell-based; settings: dose 10-500 nM, time 6-48 hrs
HCT-116 [14] = test: Induction of apoptosis in human HCT-116 cells assessed as upregulation of GADD45A mRNA expression at 10 to 500 nM incubated for 6 to 48 hrs by RNA analysis; type: functional, cell-based; settings: dose 10-500 nM, time 6-48 hrs
HCT-116 [15] = test: Induction of apoptosis in human HCT-116 cells assessed as downregulation of XIAP protein expression incubated for 48 hrs by Western blotting analysis; type: functional, cell-based
PDX27454 [16] = test: Antitumor activity against human PDX27454 cells xenografted in SCID mouse model assessed as reduction in tumor growth at 2.5 to 10 mg/kg,ip administrated once per week for 4 weeks; type: functional, organism-based; settings: dose 2.5-10 mg/kg
HCT-116 [17] = test: Induction of apoptosis in human HCT-116 cells assessed as downregulation of PRKAR2B gene expression at 10 to 500 nM incubated for 6 to 48 hrs by RNA analysis; type: functional, cell-based; settings: dose 10-500 nM, time 6-48 hrs
HCT-116 [18] = test: Induction of apoptosis in human HCT-116 cells assessed as downregulation of AAAS gene expression at 10 to 500 nM incubated for 6 to 48 hrs by RNA analysis; type: functional, cell-based; settings: dose 10-500 nM, time 6-48 hrs
HCT-116 [19] = test: Induction of apoptosis in human HCT-116 cells assessed as modulation of DDX54 mRNA expression at 10 to 500 nM incubated for 6 to 48 hrs by RNA analysis; type: functional, cell-based; settings: dose 10-500 nM, time 6-48 hrs
HCT-116 [20] = test: Induction of apoptosis in human HCT-116 cells assessed as downregulation of AMPD3 gene expression at 10 to 500 nM incubated for 6 to 48 hrs by RNA analysis; type: functional, cell-based; settings: dose 10-500 nM, time 6-48 hrs
HCT-116 [21] = test: Induction of apoptosis in human HCT-116 cells assessed as downregulation of NUP210 gene expression at 10 to 500 nM incubated for 6 to 48 hrs by RNA analysis; type: functional, cell-based; settings: dose 10-500 nM, time 6-48 hrs
HCT-116 [22] = test: Induction of apoptosis in human HCT-116 cells assessed as downregulation of ATIC gene expression at 10 to 500 nM incubated for 6 to 48 hrs by RNA analysis; type: functional, cell-based; settings: dose 10-500 nM, time 6-48 hrs
HCT-116 [23] = test: Induction of apoptosis in human HCT-116 cells assessed as upregulation of POLR2A mRNA expression at 10 to 500 nM incubated for 6 to 48 hrs by RNA analysis; type: functional, cell-based; settings: dose 10-500 nM, time 6-48 hrs
HCT-116 [24] = test: Induction of apoptosis in human HCT-116 cells assessed as downregulation of NT5C3A gene expression at 10 to 500 nM incubated for 6 to 48 hrs by RNA analysis; type: functional, cell-based; settings: dose 10-500 nM, time 6-48 hrs
HCT-116 [25] = test: Induction of apoptosis in human HCT-116 cells assessed as downregulation of TXNRD1 gene expression at 10 to 500 nM incubated for 6 to 48 hrs by RNA analysis; type: functional, cell-based; settings: dose 10-500 nM, time 6-48 hrs
HCT-116 [26] = test: Induction of apoptosis in human HCT-116 cells assessed as downregulation of GNPDA2 gene expression at 10 to 500 nM incubated for 6 to 48 hrs by RNA analysis; type: functional, cell-based; settings: dose 10-500 nM, time 6-48 hrs
[27] = Toxicity in SCID mouse assessed as maximum tolerated dose at po administration; type: organism-based; settings: in vivo
HCT-116 [28] = test: Induction of apoptosis in human HCT-116 cells assessed as late apoptotic cells at 2.5 nM incubated for 48 hrs by Annexin V-FITC/PI staining based flow cytometry assay; type: functional
HCT-116 [29] = test: Induction of cell cycle arrest in human HCT-116 cells assessed as accumulation of cells at S phase at 2.5 to 10 nM incubated for 48 hrs by Annexin V-FITC/PI staining based flow cytometry assay; type: functional; settings: dose 2.5-10 nM
HCT-116 [30] = test: Induction of apoptosis in human HCT-116 cells assessed as increase in caspase-9 activity incubated for 48 hrs by BCA protein assay; type: functional, cell-based
HCT-116 [31] = test: Induction of apoptosis in human HCT-116 cells assessed as increase in caspase-3 activity incubated for 48 hrs by BCA protein assay; type: functional, cell-based
PDX27454 [32] = test: Antitumor activity against human PDX27454 cells xenografted in SCID mouse model assessed as reduction in tumor growth at 10 mg/kg,po administrated once per week for 4 weeks; type: functional, organism-based
[33] = Toxicity in SCID mouse xenografted with human PDX27454 cells assessed as body weight loss at 10 mg/kg,po administrated once per week for 4 weeks; type: organism-based; settings: in vivo, 672 h
[34] = Toxicity in SCID mouse xenografted with human PDX27454 cells assessed as body weight loss at 15 mg/kg,po administrated once per week for 4 weeks; type: organism-based; settings: in vivo, 672 h
PDX27454 [35] = test: Antitumor activity against human PDX27454 cells xenografted in SCID mouse model assessed as reduction in tumor growth at 15 mg/kg,ip administrated once per week for 4 weeks; type: functional, organism-based

## CC[C@@]1(O)C(=O)OCc2c1cc1n(c2=O)Cc2c-1nc1cc3c(cc1c2-c1ccc(OC)cc1)OCO3
HCT-116 [1]
  Activity: Active
[2]
  Activity: > 20%
HCT-116 [3]
  Activity: Active
HCT-116 [4]
  Activity: Active
[5]
  Activity: Toxic
HCT-116 [6]
  Activity: Active
HCT-116 [7]
  Activity: Active
HCT-116 [8]
  Activity: Active
HCT-116 [9]
  Activity: Active
[10]
  Activity: 20%
HCT-116 [11]
  Activity: Active
PDX27454 [12]
  Activity: Active
HCT-116 [13]
  Activity: Active
HCT-116 [14]
  Activity: Active
HCT-116 [15]
  Activity: Active
PDX27454 [16]
  Activity: Active
HCT-116 [17]
  Activity: Active
HCT-116 [18]
  Activity: Active
HCT-116 [19]
  Activity: Active
HCT-116 [20]
  Activity: Active
HCT-116 [21]
  Activity: Active
HCT-116 [22]
  Activity: Active
HCT-116 [23]
  Activity: Active
HCT-116 [24]
  Activity: Active
HCT-116 [25]
  Activity: Active

## CC[C@@]1(O)C(=O)OCc2c1cc1n(c2=O)Cc2cc3cc4c(cc3nc2-1)OCO4
HCT-116 [1]
  Activity: Active
HCT-116 [3]
  Activity: Active
HCT-116 [4]
  Activity: Active
HCT-116 [6]
  Activity: Active
HCT-116 [7]
  Activity: Active
HCT-116 [8]
  Activity: Active
HCT-116 [9]
  Activity: Active
HCT-116 [26]
  Activity: Active
HCT-116 [11]
  Activity: Active
HCT-116 [13]
  Activity: Active
HCT-116 [14]
  Activity: Active
HCT-116 [17]
  Activity: Active
HCT-116 [18]
  Activity: Active
HCT-116 [19]
  Activity: Active
HCT-116 [20]
  Activity: Active
HCT-116 [21]
  Activity: Active
HCT-116 [22]
  Activity: Active
HCT-116 [23]
  Activity: Active
HCT-116 [24]
  Activity: Active
HCT-116 [25]
  Activity: Active
[27]
  MTD: 10 mg/kg

## CC[C@@]1(O)C(=O)OCc2c1cc1n(c2=O)Cc2c-1nc1cc3c(cc1c2-c1cc(OC)cc(OC)c1)OCO3
HCT-116 [1]
  Activity: Active
HCT-116 [4]
  Activity: Active
HCT-116 [28]
  Activity: 5.58%
HCT-116 [6]
  Activity: Active
HCT-116 [7]
  Activity: Active
HCT-116 [8]
  Activity: Active
HCT-116 [9]
  Activity: Active
HCT-116 [11]
  Activity: Active
PDX27454 [12]
  Activity: Active
HCT-116 [13]
  Activity: Active
HCT-116 [14]
  Activity: Active
HCT-116 [17]
  Activity: Active
HCT-116 [18]
  Activity: Active
HCT-116 [19]
  Activity: Active
HCT-116 [29]
  Activity: Active
HCT-116 [30]
  Activity: Dose-Dependent Effect
HCT-116 [20]
  Activity: Active
HCT-116 [21]
  Activity: Active
HCT-116 [31]
  Activity: Dose-Dependent Effect
HCT-116 [22]
  Activity: Active
HCT-116 [23]
  Activity: Active
HCT-116 [24]
  Activity: Active
HCT-116 [25]
  Activity: Active

## CCc1ccc(-c2c3c(nc4cc5c(cc24)OCO5)-c2cc4c(c(=O)n2C3)COC(=O)[C@]4(O)CC)cc1
HCT-116 [1]
  Activity: Active
HCT-116 [3]
  Activity: Active
PDX27454 [32]
  Activity: Active
HCT-116 [4]
  Activity: Active
HCT-116 [6]
  Activity: Active
HCT-116 [7]
  Activity: Active
HCT-116 [8]
  Activity: Active
HCT-116 [9]
  Activity: Active
HCT-116 [11]
  Activity: Active
PDX27454 [12]
  Activity: Active
HCT-116 [13]
  Activity: Active
HCT-116 [14]
  Activity: Active
HCT-116 [15]
  Activity: Active
HCT-116 [17]
  Activity: Active
HCT-116 [18]
  Activity: Active
HCT-116 [19]
  Activity: Active
HCT-116 [20]
  Activity: Active
[33]
  Activity: Toxic
[34]
  Activity: Toxic
HCT-116 [21]
  Activity: Active
PDX27454 [35]
  Activity: inactive
HCT-116 [22]
  Activity: Active
HCT-116 [23]
  Activity: Active
HCT-116 [24]
  Activity: Active
HCT-116 [25]
  Activity: Active
